Assay results reported in patent US10597388B2, “Pyridazinone herbicides” (FMC CORPORATION, priority 2014, dated 2020).

Legend:
Test in all cases: Test D controlled growth environment herbicide test, pre- and postemergence
Type in all cases: in vivo
[1] = system: barley, spring (spring barley, Hordeum vulgare)
How it was run: (§1)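 Pre-emergence: seeds sown in silt loam soil were sprayed with compound in a non-phytotoxic solvent mix containing surfactant. Post-emergence: plants at 2 to 18 cm (1- to 4-leaf stage) in peat moss/vermiculite medium got the same formulation. Visual 0–100 rating versus controls after 14 to 21 d.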

[2] = system: barley, winter (winter barley, Hordeum vulgare)
How it was run: as §1

[3] = system: blackgrass (Alopecurus myosuroides)
How it was run: as §1

[4] = system: bromegrass, downy (downy bromegrass, Bromus tectorum)
How it was run: as §1

[5] = system: chamomile (scentless chamomile, Matricaria inodora)
How it was run: as §1

[6] = system: chickweed (common chickweed, Stellaria media)
How it was run: as §1

[7] = system: deadnettle (henbit deadnettle, Lamium amplexicaule)
How it was run: as §1

[8] = system: field poppy (Papaver rhoeas)
How it was run: as §1

[9] = system: foxtail, green (green foxtail, Setaria viridis)
How it was run: as §1

[10] = system: lambsquarters (Chenopodium album)
How it was run: as §1

[11] = system: ryegrass, Italian (Italian ryegrass, Lolium multiflorum)
How it was run: as §1

[12] = system: wheat, spring (spring wheat, Triticum aestivum)
How it was run: as §1

[13] = system: wheat, winter (winter wheat, Triticum aestivum)
How it was run: as §1

[14] = Postemergence, 31 g ai/ha, scale 0 to 100 (0 no effect, 100 complete control)
[15] = Postemergence, 125 g ai/ha, visual rating on scale 0 (no effect) to 100 (complete control), 14 to 21 d
[16] = Postemergence, 250 g ai/ha, scale 0 to 100 (0 no effect, 100 complete control)
[17] = Preemergence, 62 g ai/ha, scale 0 to 100 (0 no effect, 100 complete control)
[18] = Preemergence, 125 g ai/ha, scale 0 to 100 (0 no effect, 100 complete control)
[19] = Preemergence, 250 g ai/ha, scale 0 to 100 (0 no effect, 100 complete control)
[20] = postemergence, 62 g ai/ha, scale 0 to 100, 0 no effect, 100 complete control

Cc1nn(C)c(=O)c(-c2c(C)sc3ccc(Cl)cc23)c1O [Compound 104]
100: Plant response rating, Chamomile [5, 16] | Plant response rating, Chickweed [6, 15] | Plant response rating, Chickweed [6, 16] | Plant response rating (scale of 0 to 100), Chickweed ([6]; Preemergence, 31 g ai/ha) | Plant response rating (scale of 0 to 100), Chickweed ([6]; Preemergence, 62 g ai/ha) | Plant response rating, Chickweed [6, 19] | Plant response rating, Chickweed [6, 20] | Plant response rating, Deadnettle [7, 19] | Plant response rating (scale of 0 to 100), Field Poppy ([8]; Preemergence, 62 g ai/ha) | Plant response rating, Field Poppy [8, 18] | Plant response rating, Field Poppy [8, 19] | Plant response rating, Foxtail, Green [9, 18] | Plant response rating, Foxtail, Green [9, 19] | Plant response rating, Lambsquarters [10, 15] | Plant response rating, Lambsquarters [10, 16] | Plant response rating (scale of 0 to 100), Lambsquarters ([10]; Preemergence, 62 g ai/ha) | Plant response rating, Lambsquarters [10, 18] | Plant response rating, Lambsquarters [10, 19] | Plant response rating, Lambsquarters [10, 20] | Plant response rating (scale of 0 to 100), Ryegrass, Italian ([11]; Preemergence, 31 g ai/ha) | Plant response rating (scale of 0 to 100), Ryegrass, Italian ([11]; Preemergence, 62 g ai/ha) | Plant response rating, Ryegrass, Italian [11, 18] | Plant response rating, Ryegrass, Italian [11, 19]
15: Plant response rating, Barley, Spring [1, 16] | Plant response rating, Barley, Spring [1, 19] | Plant response rating, Barley, Winter [2, 16] | Field Poppy plant response rating [8, 14] | Plant response rating (scale of 0 to 100), Wheat, Spring ([12]; Preemergence, 62 g ai/ha) | Plant response rating, Wheat, Spring [12, 20] | Plant response rating, Wheat, Winter [13, 19] | Plant response rating, Wheat, Winter [13, 20]
65: Plant response rating, Blackgrass [3, 15] | Plant response rating, Blackgrass [3, 18] | Plant response rating, Bromegrass, Downy [4, 16] | Plant response rating, Bromegrass, Downy [4, 17] | Plant response rating, Bromegrass, Downy [4, 18] | Plant response rating (scale of 0 to 100), Deadnettle ([7]; Preemergence, 31 g ai/ha) | Plant response rating, Field Poppy [8, 20]
20: Plant response rating, Barley, Winter [2, 19] | Bromegrass, Downy plant response rating [4, 14] | Plant response rating (scale of 0 to 100), Foxtail, Green ([9]; Preemergence, 31 g ai/ha) | Plant response rating, Wheat, Spring [12, 15] | Plant response rating, Wheat, Winter [13, 15]
50: Plant response rating, Deadnettle [7, 20]
5: Plant response rating, Barley, Spring [1, 18] | Wheat, Winter plant response rating [13, 14] | Plant response rating, Wheat, Winter [13, 18]
10: Plant response rating, Barley, Spring [1, 15] | Plant response rating, Barley, Spring [1, 20] | Plant response rating, Barley, Winter [2, 15] | Plant response rating, Barley, Winter [2, 18] | Plant response rating, Barley, Winter [2, 20] | Wheat, Spring plant response rating [12, 14]
75: Plant response rating, Blackgrass [3, 19] | Plant response rating, Field Poppy [8, 15] | Plant response rating (scale of 0 to 100), Lambsquarters ([10]; Preemergence, 31 g ai/ha)
35: Blackgrass plant response rating [3, 14] | Plant response rating, Wheat, Spring [12, 18]
80: Chamomile plant response rating [5, 14] | Plant response rating (scale of 0 to 100), Deadnettle ([7]; Preemergence, 62 g ai/ha) | Plant response rating, Deadnettle [7, 18] | Plant response rating, Field Poppy [8, 16]
55: Plant response rating, Bromegrass, Downy [4, 15]
85: Plant response rating, Bromegrass, Downy [4, 19] | Plant response rating, Chamomile [5, 20] | Plant response rating, Deadnettle [7, 16] | Plant response rating, Foxtail, Green [9, 15]
30: Plant response rating, Bromegrass, Downy [4, 20] | Foxtail, Green plant response rating [9, 14] | Plant response rating, Wheat, Spring [12, 16]
0: Barley, Spring plant response rating [1, 14] | Plant response rating (scale of 0 to 100), Barley, Spring ([1]; Preemergence, 31 g ai/ha) | Plant response rating, Barley, Spring [1, 17] | Barley, Winter plant response rating [2, 14] | Plant response rating (scale of 0 to 100), Barley, Winter ([2]; Preemergence, 31 g ai/ha) | Plant response rating, Barley, Winter [2, 17] | Plant response rating (scale of 0 to 100), Bromegrass, Downy ([4]; Preemergence, 31 g ai/ha) | Plant response rating (scale of 0 to 100), Field Poppy ([8]; Preemergence, 31 g ai/ha) | Plant response rating (scale of 0 to 100), Wheat, Spring ([12]; Preemergence, 31 g ai/ha) | Plant response rating (scale of 0 to 100), Wheat, Winter ([13]; Preemergence, 31 g ai/ha) | Plant response rating (scale of 0 to 100), Wheat, Winter ([13]; Preemergence, 62 g ai/ha)
90: Plant response rating, Foxtail, Green [9, 16] | Ryegrass, Italian plant response rating [11, 14]
95: Plant response rating, Chamomile [5, 15] | Chickweed plant response rating [6, 14] | Plant response rating, Chickweed [6, 18] | Lambsquarters plant response rating [10, 14] | Plant response rating, Ryegrass, Italian [11, 15] | Plant response rating, Ryegrass, Italian [11, 16] | Plant response rating, Ryegrass, Italian [11, 20]
60: Plant response rating, Blackgrass [3, 17]
45: Deadnettle plant response rating [7, 14] | Plant response rating, Wheat, Spring [12, 19]
70: Plant response rating, Blackgrass [3, 16] | Plant response rating, Deadnettle [7, 15] | Plant response rating (scale of 0 to 100), Foxtail, Green ([9]; Preemergence, 62 g ai/ha) | Plant response rating, Foxtail, Green [9, 20]
25: Plant response rating (scale of 0 to 100), Blackgrass ([3]; Preemergence, 31 g ai/ha) | Plant response rating, Wheat, Winter [13, 16]
40: Plant response rating, Blackgrass [3, 20]
